For one test, the system named is H929 cells. Kind of test: Cell viability assay (H929 10 FBS). In kind it is cell-based. The following applies: read-out: H929_10FBS IC50. Summed up: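 H929 cells, 4000/well, in RPMI 1640 with 10% FBS, sodium pyruvate, HEPES and glucose were exposed to compound 24 h at 37 °C. Viability read as luminescence after 30-60 min at RT with CellTiter-Glo or ATPlite 1 Step.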

A further test addresses MCL-1 (Homo sapiens (Human), UniProt Q07820). The test is described as follows: Cell free Mcl-1:Bim affinity assay (fluorescence polarization competition). The format is binding. The following applies: 15 nM MCL-1, 5 nM FITC-Bim, 1 hour at room temperature, read-out: BIM_Ki. The method, boiled down: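 Compounds competed with FITC-labelled Bim peptide (5 nM) for MCL-1 (15 nM) in HEPES/NaCl buffer with 1% DMSO, 1 h at room temperature. Fluorescence polarization (535 nm emission) gave % inhibition versus DMSO and positive controls; IC50 from 10-point curves, converted to Ki by the Nikolovska-Coleska equation.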
On the technique in general: Fluorescence polarisation rises when a labelled molecule tumbles more slowly, as on binding a larger partner.

Where [1] appears, read: Homo sapiens, NCI-H929, 24 hours.

Where two headings read alike, the source gives them in different places.

Chain of MCL-1 (Q07820 whole entry): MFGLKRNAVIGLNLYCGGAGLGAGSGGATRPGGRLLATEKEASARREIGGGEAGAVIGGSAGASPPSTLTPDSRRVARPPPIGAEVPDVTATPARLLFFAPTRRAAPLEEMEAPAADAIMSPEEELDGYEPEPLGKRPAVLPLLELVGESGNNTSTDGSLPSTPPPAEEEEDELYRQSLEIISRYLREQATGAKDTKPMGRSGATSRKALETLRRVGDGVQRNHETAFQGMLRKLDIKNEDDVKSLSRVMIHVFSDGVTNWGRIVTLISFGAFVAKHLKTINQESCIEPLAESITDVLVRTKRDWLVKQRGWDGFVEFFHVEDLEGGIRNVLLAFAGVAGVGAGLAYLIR

The IC50 is the concentration that inhibits the measured activity by half. In the case of `COC1CN(CCO[C@H]2/C=C/COC(C)(C)C(=O)NS(=O)(=O)c3ccc4c(c3)N(C[C@@H]3CC[C@H]32)C[C@@]2(CCCc3cc(Cl)ccc32)CO4)C1` [Example 261, (3R,6R,7S,8E,22S)-6′-Chloro-7-[2-(3-methoxyazetidin-1-yl)ethoxy]-12,12-dimethyl-15,15-dioxo-spiro[11,20-dioxa-15-thia-1,14-diazatetracyclo[14.7.2.03,6.019,24]pentacosa-8,16,18,24-tetraene-22,1′-tetralin]-13-one], the IC50 in the test on H929 cells (setting [1]) is below 500 nM. Further, the Ki on MCL-1 (class symbols) was below 1 nM.

Consider `CCCN1C/C=C/[C@H](OC(=O)N(C)C)[C@@H]2CC[C@H]2CN2C[C@@]3(CCCc4cc(Cl)ccc43)COc3ccc(cc32)S(=O)(=O)NC(=O)C1(C)C` [Example 211, [(3R,6R,7S,8E,22S)-6′-Chloro-12,12-dimethyl-13,15,15-trioxo-11-propyl-spiro[20-oxa-15-thia-1,11,14-triazatetracyclo[14.7.2.03,6.019,24]pentacosa-8,16,18,24-tetraene-22,1′-tetralin]-7-yl] N,N-dimethylcarbamate], for which the IC50 in the test on H929 cells (setting [1]) was below 500 nM. Also, at MCL-1 (class symbols), the Ki was below 1 nM.

`CC1(C)OC/C=C/[C@H](OC(=O)N2CCC2)[C@@H]2CC[C@H]2CN2C[C@@]3(CCCc4cc(Cl)ccc43)COc3ccc(cc32)S(=O)(=O)NC1=O` [Example 174, [(3R,6R,7S,8E,22S)-6′-Chloro-12,12-dimethyl-13,15,15-trioxo-spiro[11,20-dioxa-15-thia-1,14-diazatetracyclo[14.7.2.03,6.019,24]pentacosa-8,16,18,24-tetraene-22,1′-tetralin]-7-yl] azetidine-1-carboxylate]: the half-maximal inhibitory concentration (IC50) in the test with H929 cells (setting [1]) is below 500 nM. The Ki on MCL-1 (class symbols) is below 1 nM.

For `CC1/C=C/[C@H](OC(=O)N(C)C)[C@@H]2CC[C@H]2CN2C[C@@]3(CCCc4cc(Cl)ccc43)COc3ccc(cc32)S(=O)(=O)NC(=O)C(C)(C)O1` (stereo partly drawn) [Example 292, [(3R,6R,7S,8E,22S)-6′-Chloro-10,12,12-trimethyl-13,15,15-trioxo-spiro[11,20-dioxa-15-thia-1,14-diazatetracyclo[14.7.2.03,6.019,24]pentacosa-8,16,18,24-tetraene-22,1′-tetralin]-7-yl] N,N-dimethylcarbamate], the IC50 in the test with H929 cells (setting [1]) was below 500 nM. Moreover, on MCL-1 (class symbols), the Ki was below 1 nM.

On to `CC1(C)OC/C=C/[C@H](OCC(=O)N2C[C@@H](F)[C@@H](F)C2)[C@@H]2CC[C@H]2CN2C[C@@]3(CCCc4cc(Cl)ccc43)COc3ccc(cc32)S(=O)(=O)NC1=O` [Example 291, (3R,6R,7S,8E,22S)-6′-Chloro-7-[2-[(3R,4S)-3,4-difluoropyrrolidin-1-yl]-2-oxo-ethoxy]-12,12-dimethyl-15,15-dioxo-spiro[11,20-dioxa-15λ6-thia-1,14-diazatetracyclo[14.7.2.03,6.019,24]pentacosa-8,16,18,24-tetraene-22,1′-tetralin]-13-one], for which the IC50 in the test on H929 cells (setting [1]) is below 1000 nM. For the same molecule, the Ki on MCL-1 (class symbols) is below 1 nM.

With `CNC1CN(C(=O)O[C@H]2/C=C/COC(C)(C)C(=O)NS(=O)(=O)c3ccc4c(c3)N(C[C@@H]3CC[C@H]32)C[C@@]2(CCCc3cc(Cl)ccc32)CO4)C1` [Example 156, [(3R,6R,7S,8E,22S)-6′-Chloro-12,12-dimethyl-13,15,15-trioxo-spiro[11,20-dioxa-15-thia-1,14-diazatetracyclo[14.7.2.03,6.019,24]pentacosa-8,16,18,24-tetraene-22,1′-tetralin]-7-yl] 3-(methylamino)azetidine-1-carboxylate], in the test with H929 cells (setting [1]), the IC50 was below 500 nM. Moreover, the Ki on MCL-1 (class symbols) was below 1 nM.

`CO[C@H]1/C=C/C[C@@H](C)CC(=O)NS(=O)(=O)c2ccc3c(c2)N(C[C@@H]2CC[C@H]21)C[C@@]1(CCCc2cc(Cl)ccc21)CO3` [Example 84, (3R,6R,7S,8E,11R,22S)-6′-Chloro-7-methoxy-11-methyl-15,15-dioxo-spiro[20-oxa-15-thia-1,14-diazatetracyclo[14.7.2.03,6.019,24]pentacosa-8,16(25),17,19(24)-tetraene-22,1′-tetralin]-13-one]: the IC50 in the test on H929 cells (setting [1]) was above 1000 nM. In addition, the Ki on MCL-1 (class symbols) lay in the range of 1 to 100 nM.

With `COC1CN(C(=O)O[C@H]2/C=C/CN(C)C(C)(C)C(=O)NS(=O)(=O)c3ccc4c(c3)N(C[C@@H]3CC[C@H]32)C[C@@]2(CCCc3cc(Cl)ccc32)CO4)C1` [Example 217, [(3R,6R,7S,8E,22S)-6′-Chloro-11,12,12-trimethyl-13,15,15-trioxo-spiro[20-oxa-15-thia-1,11,14-triazatetracyclo[14.7.2.03,6.019,24]pentacosa-8,16,18,24-tetraene-22,1′-tetralin]-7-yl] 3-methoxyazetidine-1-carboxylate], the IC50 with H929 cells (setting [1]) is below 500 nM. Also, the Ki at MCL-1 (class symbols) is below 1 nM.

For `C[C@@H]1C(=O)NS(=O)(=O)c2ccc3c(c2)N(C[C@@H]2CC[C@H]2[C@@H](O)/C=C/CN1C)C[C@@]1(CCCc2cc(Cl)ccc21)CO3` [Example 144, (3R,6R,7S,8E,12R,22S)-6′-Chloro-7-hydroxy-11,12-dimethyl-15,15-dioxo-spiro[20-oxa-15-thia-1,11,14-triazatetracyclo[14.7.2.03,6.019,24]pentacosa-8,16,18,24-tetraene-22,1′-tetralin]-13-one], in the test on H929 cells (setting [1]), the IC50 was above 1000 nM. Also, the Ki at MCL-1 (class symbols) fell in the range of 1 to 100 nM.

As for `CO[C@@H]1CCN(C(=O)O[C@H]2/C=C/COC3(CCC3)C(=O)NS(=O)(=O)c3ccc4c(c3)N(C[C@@H]3CC[C@H]32)C[C@@]2(CCCc3cc(Cl)ccc32)CO4)C1` [Example 229, [(3R,6R,7S,8E,22S)-6′-Chloro-12,12-(1,3-propylene)-13,15,15-trioxo-spiro[11,20-dioxa-15-thia-1,14-diazatetracyclo[14.7.2.03,6.019,24]pentacosa-8,16,18,24-tetraene-22,1′-tetralin]-7-yl] (3S)-3-methoxypyrrolidine-1-carboxylate], in the test on H929 cells (setting [1]), the IC50 is below 500 nM. Besides, the Ki on MCL-1 (class symbols) was below 1 nM.

In the case of `CC1(C)CN(C(=O)O[C@H]2/C=C/COC(C)(C)C(=O)NS(=O)(=O)c3ccc4c(c3)N(C[C@@H]3CC[C@H]32)C[C@@]2(CCCc3cc(Cl)ccc32)CO4)CCO1` [Example 158, [(3R,6R,7S,8E,22S)-6′-Chloro-12,12-dimethyl-13,15,15-trioxo-spiro[11,20-dioxa-15-thia-1,14-diazatetracyclo[14.7.2.03,6.019,24]pentacosa-8,16,18,24-tetraene-22,1′-tetralin]-7-yl] 2,2-dimethylmorpholine-4-carboxylate], in the test with H929 cells (setting [1]), the concentration for half-maximal inhibition (IC50) is below 500 nM. In addition, the Ki on MCL-1 (class symbols) was below 1 nM.

Turning to `CC1(C)OC/C=C/[C@H](OC(=O)N[C@@H]2CCOC2)[C@@H]2CC[C@H]2CN2C[C@@]3(CCCc4cc(Cl)ccc43)COc3ccc(cc32)S(=O)(=O)NC1=O` [Example 62, [(3R,6R,7S,8E,22S)-6′-Chloro-12,12-dimethyl-13,15,15-trioxo-spiro[11,20-dioxa-15-thia-1,14-diazatetracyclo[14.7.2.03,6.019,24]pentacosa-8,16,18,24-tetraene-22,1′-tetralin]-7-yl] N-[(3R)-tetrahydrofuran-3-yl]carbamate], the IC50 in the test on H929 cells (setting [1]) was below 500 nM. In addition, on MCL-1 (class symbols), the Ki is below 1 nM.

For `CC1(C)OC/C=C/[C@H](OC(=O)N2CC(F)(F)C2)[C@@H]2CC[C@H]2CN2C[C@@]3(CCCc4cc(Cl)ccc43)COc3ccc(cc32)S(=O)(=O)NC1=O` [Example 49, [(3R,6R,7S,8E,22S)-6′-Chloro-12,12-dimethyl-13,15,15-trioxo-spiro[11,20-dioxa-15-thia-1,14-diazatetracyclo[14.7.2.03,6.019,24]pentacosa-8,16,18,24-tetraene-22,1′-tetralin]-7-yl] 3,3-difluoroazetidine-1-carboxylate], in the test on H929 cells (setting [1]), the IC50 is below 500 nM. For the same molecule, the Ki at MCL-1 (class symbols) was below 1 nM.

In the case of “(4′Z,5′E)-6-Chloro-3,4-dihydro-2H-spiro[naphthalene-1,3′-13-thia-12-aza-1(5,7)-benzo[b][1,4]oxazepina-3(4,1)-pyrazolacyclotridecaphanen]-5′-en-11′-one 13′,13′-dioxide and (4′Z,5′Z)-6-chloro-3,4-dihydro-2H-spiro[naphthalene-1,3′-13-thia-12-aza-1(5,7)-benzo[b][1,4]oxazepina-3(4,1)-pyrazolacyclotridecaphanen]-5′-en-11′-one 13′,13′-dioxide [Example 11]”, in the test on H929 cells (24 hours), the 50% inhibitory concentration (IC50) is above 1000 nM. For the same molecule, on MCL-1 (numeric values), the Ki stood at 503 nM.

`CO[C@@H]1/C=C/CN[C@@H](C)C(=O)NS(=O)(=O)c2ccc3c(c2)N(C[C@@H]2CC[C@H]21)C[C@@]1(CCCc2cc(Cl)ccc21)CO3` [Example 117, (3R,6R,7R,8E,12S,22S)-6′-Chloro-7-methoxy-12-methyl-15,15-dioxo-spiro[20-oxa-15-thia-1,11,14-triazatetracyclo[14.7.2.03,6.019,24]pentacosa-8,16(25),17,19(24)-tetraene-22,1′-tetralin]-13-one]: the half-inhibitory concentration (IC50) in the test with H929 cells (setting [1]) was above 1000 nM. The Ki on MCL-1 (class symbols) is 1 to 100 nM.

`COC(=O)N1C/C=C/[C@@H](OC)[C@@H]2CC[C@H]2CN2C[C@@]3(CCCc4cc(Cl)ccc43)COc3ccc(cc32)S(=O)(=O)NC(=O)[C@H]1C` [Example 134, Methyl (3R,6R,7R,8E,12R,22S)-6′-Chloro-7-methoxy-12-methyl-13,15,15-trioxo-spiro[20-oxa-15-thia-1,11,14-triazatetracyclo[14.7.2.03,6.019,24]pentacosa-8,16,18,24-tetraene-22,1′-tetralin]-11-carboxylate]: the half-inhibitory concentration (IC50) with H929 cells (setting [1]) was above 1000 nM. Besides, the Ki at MCL-1 (class symbols) lay within 1 to 100 nM.

The values are drawn from US11130769B2 (Prelude Therapeutics Incorporated, priority 2018, dated 2021).
